Results as given in patent publication US12697330B2, “Therapeutic methods using vadadustat” (Akebia Therapeutics, Inc., priority 2021, dated 2026).

Test system: hemoglobin (Hb)
Assay: Phase 2 study in hemodialysis subjects converting from epoetin alfa, Main Study: efficacy (hemoglobin)
Type: in vivo, human
From the text: The primary objective was to assess the efficacy and safety of daily dosing of vadadustat compared to epoetin alfa for 12 weeks in hemodialysis subjects. Additional objectives included to assess the efficacy and safety of three times weekly (TIW) dosing of vadadustat in selected hemodialysis subjects who have been successfully managed with daily dosing of vadadustat through Week 12, to evaluate the PK/PD of daily and TIW dosing of vadadustat in hemodialysis subjects compared to epoetin alfa, and to assess the efficacy and safety of several dosing strategies of vadadustat compared to epoetin alfa during a 20-week Treatment Period in hemodialysis subjects.
The Main study population consisted of adult subjects receiving chronic, outpatient in-center hemodialysis three times weekly (TIW), with 2 screening hemoglobin (Hb) values between 8.5 and 11.0 g/dL (inclusive) and on maintenance treatment with epoetin alfa <300 U/kg/week.
Efficacy Endpoints. The primary endpoint was the mean change in Hb between Baseline (average pretreatment Hb) and the primary evaluation period (average Hb from Weeks 10 to 12). Secondary endpoints included proportion of subjects with Hb values within the target range (10.0 to 11.0 g/dL, inclusive) at the primary evaluation period (Weeks 10-12) and for subjects who transitioned to TIW vadadustat dosing, mean change in Hb from primary evaluation period (average Hb from Weeks 10-12) to the secondary period (average Hb from Weeks 18-20). Other secondary endpoints included mean change in Hb from Baseline (average pretreatment Hb) and the secondary evaluation period (average Hb from Weeks 18-20), proportion of subjects with Hb values within the target range (10.0 to 11.0 g/dL, inclusive) at the secondary evaluation period (Weeks 18 to 20), for subjects who transitioned to TIW vadadustat dosing, proportion of subjects with Hb values within the target range (10.0 to 11.0 g/dL, inclusive) at the secondary evaluation period (Weeks 18-20), proportion of subjects with a mean increase in Hb from Baseline to the primary evaluation period ≥0.5 g/dL (average Hb from Weeks 10-12) or with Hb values within the target range (10.0 to 11.0 g/dL, inclusive) at the primary evaluation period (Weeks 10-12), proportion of subject with a mean increase in Hb from Baseline to the secondary evaluation period ≥0.5 g/dL (average Hb from Weeks 18-20) or with Hb values within the target range (10.0 to 11.0 g/dL, inclusive) at the secondary evaluation period (Weeks 18-20), intravenous (IV) iron supplementation, ESA rescue, and RBC transfusion.
Study Design. This was a Phase 2, randomized, open-label study to evaluate vadadustat for the treatment of anemia in hemodialysis subjects converting from epoetin alfa therapy. For all subjects (Main study and ESA hyporesponder parallel study), the study included a Screening Period, a study Treatment Period, and a Safety Follow-Up Period as described below. PK and PD sampling were done throughout the study. The aim was to achieve and maintain Hb levels within the target range of 10.0 to 11.0 g/dL, inclusive, while targeting the middle of the range and minimizing excursions outside the target range.
Randomization. Subjects were randomized to either a vadadustat treatment arm or epoetin alfa treatment arm. Randomization was stratified by mean weekly epoetin alfa dose calculated over a period of 8 weeks prior to SV2: low epoetin alfa dose group (≤90 U/kg/week) or high epoetin alfa dose group (>90 to <300 U/kg/week). In the low epoetin alfa dose group, subjects were randomized in a 3:3:2 ratio to receive either an initial vadadustat daily dose of 450 mg (3 tablets) or 300 mg (2 tablets), or epoetin alfa. In the high epoetin alfa dose group, subjects were randomized in a 3:3:3:2 ratio to receive either an initial vadadustat daily dose of 600 mg (4 tablets), 450 mg (3 tablets) or 300 mg (2 tablets), or epoetin alfa.
Study Treatment Period (Baseline/Day 1 to Week 20). […]

[1] = Primary Evaluation Period (Average of Weeks 10 to 12), Vada 300 mg, High Epoetin Alfa (>90 to <300 U/kg/week)
[2] = Primary Evaluation Period (Average of Weeks 10 to 12), Vada 300 mg, Low Epoetin Alfa (<90 U/kg/week)
[3] = Primary Evaluation Period (Average of Weeks 10 to 12), Vada 450 mg, High Epoetin Alfa (>90 to <300 U/kg/week)
[4] = Primary Evaluation Period (Average of Weeks 10 to 12), Vada 450 mg, Low Epoetin Alfa (<90 U/kg/week)
[5] = Primary Evaluation Period (Average of Weeks 10 to 12), Vada 600 mg, High Epoetin Alfa (>90 to <300 U/kg/week)
[6] = Secondary Evaluation Period (Average of Weeks 18 to 20), Vada 300 mg, High Epoetin Alfa (>90 to <300 U/kg/week)
[7] = Secondary Evaluation Period (Average of Weeks 18 to 20), Vada 300 mg, Low Epoetin Alfa (<90 U/kg/week)
[8] = Secondary Evaluation Period (Average of Weeks 18 to 20), Vada 450 mg, High Epoetin Alfa (>90 to <300 U/kg/week)
[9] = Secondary Evaluation Period (Average of Weeks 18 to 20), Vada 450 mg, Low Epoetin Alfa (<90 U/kg/week)
[10] = Secondary Evaluation Period (Average of Weeks 18 to 20), Vada 600 mg, High Epoetin Alfa (>90 to <300 U/kg/week)
[11] = Vada 300 mg, High Epoetin Alfa (>90 to <300 U/kg/week)
[12] = Vada 300 mg, Low Epoetin Alfa (<90 U/kg/week)
[13] = Vada 450 mg, High Epoetin Alfa (>90 to <300 U/kg/week)
[14] = Vada 450 mg, Low Epoetin Alfa (<90 U/kg/week)
[15] = Vada 600 mg, High Epoetin Alfa (>90 to <300 U/kg/week)

## O=C(O)CNC(=O)c1ncc(-c2cccc(Cl)c2)cc1O [Compound 1, {[5-(3-chlorophenyl)-3-hydroxypyridine-2-carbonyl]amino}acetic acid]
[1]
  Subjects with Hb Higher than Target range (10.0 to 11.0 g/dL), number (percentage of N2): 0
  Subjects with Hb Lower than Target range (10.0 to 11.0 g/dL), number (percentage of N2): 11 (91.7)
  Subjects with Hb Within Target range (10.0 to 11.0 g/dL), number (percentage of N2): 1 (8.3)
[2]
  Subjects with Hb Higher than Target range (10.0 to 11.0 g/dL), number (percentage of N2): 2 (6.7)
  Subjects with Hb Lower than Target range (10.0 to 11.0 g/dL), number (percentage of N2): 16 (53.3)
  Subjects with Hb Within Target range (10.0 to 11.0 g/dL), number (percentage of N2): 12 (40.0)
[3]
  Subjects with Hb Higher than Target range (10.0 to 11.0 g/dL), number (percentage of N2): 4 (22.2)
  Subjects with Hb Lower than Target range (10.0 to 11.0 g/dL), number (percentage of N2): 10 (55.6)
  Subjects with Hb Within Target range (10.0 to 11.0 g/dL), number (percentage of N2): 4 (22.2)
[4]
  Subjects with Hb Higher than Target range (10.0 to 11.0 g/dL), number (percentage of N2): 6 (20.0)
  Subjects with Hb Lower than Target range (10.0 to 11.0 g/dL), number (percentage of N2): 11 (36.7)
  Subjects with Hb Within Target range (10.0 to 11.0 g/dL), number (percentage of N2): 13 (43.3)
[5]
  Subjects with Hb Higher than Target range (10.0 to 11.0 g/dL), number (percentage of N2): 2 (14.3)
  Subjects with Hb Lower than Target range (10.0 to 11.0 g/dL), number (percentage of N2): 8 (57.1)
  Subjects with Hb Within Target range (10.0 to 11.0 g/dL), number (percentage of N2): 4 (28.6)
[6]
  Subjects with Hb Higher than Target range (10.0 to 11.0 g/dL), number (percentage of N2): 1 (14.3)
  Subjects with Hb Lower than Target range (10.0 to 11.0 g/dL), number (percentage of N2): 4 (57.1)
  Subjects with Hb Within Target range (10.0 to 11.0 g/dL), number (percentage of N2): 2 (28.6)
[7]
  Subjects with Hb Higher than Target range (10.0 to 11.0 g/dL), number (percentage of N2): 4 (15.4)
  Subjects with Hb Lower than Target range (10.0 to 11.0 g/dL), number (percentage of N2): 16 (61.5)
  Subjects with Hb Within Target range (10.0 to 11.0 g/dL), number (percentage of N2): 6 (23.1)
[8]
  Subjects with Hb Higher than Target range (10.0 to 11.0 g/dL), number (percentage of N2): 2 (14.3)
  Subjects with Hb Lower than Target range (10.0 to 11.0 g/dL), number (percentage of N2): 9 (64.3)
  Subjects with Hb Within Target range (10.0 to 11.0 g/dL), number (percentage of N2): 3 (21.4)
[9]
  Subjects with Hb Higher than Target range (10.0 to 11.0 g/dL), number (percentage of N2): 3 (12.5)
  Subjects with Hb Lower than Target range (10.0 to 11.0 g/dL), number (percentage of N2): 14 (58.3)
  Subjects with Hb Within Target range (10.0 to 11.0 g/dL), number (percentage of N2): 7 (29.2)
[10]
  Subjects with Hb Higher than Target range (10.0 to 11.0 g/dL), number (percentage of N2): 1 (10.0)
  Subjects with Hb Lower than Target range (10.0 to 11.0 g/dL), number (percentage of N2): 7 (70.0)
  Subjects with Hb Within Target range (10.0 to 11.0 g/dL), number (percentage of N2): 2 (20.0)
[11]
  Change from Baseline in Hb at Primary Evaluation Period, Mean (SD): −1.048 (0.730) g/dL
  Change from Baseline in Hb at Primary Evaluation Period, Median: -0.967 g/dL
  Change from Baseline in Hb at Secondary Evaluation Period, Mean (SD): 0.017 (1.086) g/dL
  Change from Baseline in Hb at Secondary Evaluation Period, Median: -0.325 g/dL
  Hb at Primary Evaluation Period (Average of Weeks 10 to 12), Mean (SD): 8.82 (0.761) g/dL
  Hb at Primary Evaluation Period (Average of Weeks 10 to 12), Median: 8.750 g/dL
  Hb at Secondary Evaluation Period (Average of Weeks 18 to 20), Mean (SD): 9.88 (1.027) g/dL
  Hb at Secondary Evaluation Period (Average of Weeks 18 to 20), Median: 9.575 g/dL
[12]
  Change from Baseline in Hb at Primary Evaluation Period, Mean (SD): −0.421 (0.732) g/dL
  Change from Baseline in Hb at Primary Evaluation Period, Median: -0.450 g/dL
  Change from Baseline in Hb at Secondary Evaluation Period, Mean (SD): −0.327 (1.086) g/dL
  Change from Baseline in Hb at Secondary Evaluation Period, Median: -0.300 g/dL
  Hb at Primary Evaluation Period (Average of Weeks 10 to 12), Mean (SD): 9.78 (0.742) g/dL
  Hb at Primary Evaluation Period (Average of Weeks 10 to 12), Median: 9.767 g/dL
  Hb at Secondary Evaluation Period (Average of Weeks 18 to 20), Mean (SD): 9.86 (0.932) g/dL
  Hb at Secondary Evaluation Period (Average of Weeks 18 to 20), Median: 9.775 g/dL
[13]
  Change from Baseline in Hb at Primary Evaluation Period, Mean (SD): −0.130 (1.033) g/dL
  Change from Baseline in Hb at Primary Evaluation Period, Median: -0.250 g/dL
  Change from Baseline in Hb at Secondary Evaluation Period, Mean (SD): −0.458 (0.895) g/dL
  Change from Baseline in Hb at Secondary Evaluation Period, Median: -0.575 g/dL
  Hb at Primary Evaluation Period (Average of Weeks 10 to 12), Mean (SD): 9.96 (1.121) g/dL
  Hb at Primary Evaluation Period (Average of Weeks 10 to 12), Median: 9.750 g/dL
  Hb at Secondary Evaluation Period (Average of Weeks 18 to 20), Mean (SD): 9.63 (0.954) g/dL
  Hb at Secondary Evaluation Period (Average of Weeks 18 to 20), Median: 9.475 g/dL
[14]
  Change from Baseline in Hb at Primary Evaluation Period, Mean (SD): −0.074 (1.085) g/dL
  Change from Baseline in Hb at Primary Evaluation Period, Median: 0.017 g/dL
  Change from Baseline in Hb at Secondary Evaluation Period, Mean (SD): −0.273 (0.827) g/dL
  Change from Baseline in Hb at Secondary Evaluation Period, Median: -0.300 g/dL
  Hb at Primary Evaluation Period (Average of Weeks 10 to 12), Mean (SD): 10.08 (1.226) g/dL
  Hb at Primary Evaluation Period (Average of Weeks 10 to 12), Median: 10.550 g/dL
  Hb at Secondary Evaluation Period (Average of Weeks 18 to 20), Mean (SD): 9.91 (0.909) g/dL
  Hb at Secondary Evaluation Period (Average of Weeks 18 to 20), Median: 9.917 g/dL
[15]
  Change from Baseline in Hb at Primary Evaluation Period, Mean (SD): −0.541 (1.124) g/dL
  Change from Baseline in Hb at Primary Evaluation Period, Median: -0.133 g/dL
  Change from Baseline in Hb at Secondary Evaluation Period, Mean (SD): −0.500 (1.025) g/dL
  Change from Baseline in Hb at Secondary Evaluation Period, Median: -0.300 g/dL
  Hb at Primary Evaluation Period (Average of Weeks 10 to 12), Mean (SD): 9.62 (1.026) g/dL
  Hb at Primary Evaluation Period (Average of Weeks 10 to 12), Median: 9.233 g/dL
  Hb at Secondary Evaluation Period (Average of Weeks 18 to 20), Mean (SD): 9.57 (0.871) g/dL
  Hb at Secondary Evaluation Period (Average of Weeks 18 to 20), Median: 9.450 g/dL
